Reference: the supplement of paper PMC10307832

Columns and labels:
Assay in all cases: relative viability (nuclei count vs DMSO), 5 days (fraction); higher = more cells survive
LU99A = tested on: LU99A
In short: (§1)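 Relative viability equals treated-well nuclei counts divided by vehicle-well nuclei counts. Counts came from 4× images of lung cancer cell lines grown in 1536-well plates for 5 days after pin-tool dosing on the day after seeding. Dosing used one drug alone or a fixed anchor-drug dose plus five library-drug doses (not always all listed) in √10 steps, and values are medians of duplicate plates.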

NCI-H1650 = tested on: NCI-H1650
In short: as §1

NCI-H2085 = tested on: NCI-H2085
In short: as §1

NCI-H596 = tested on: NCI-H596
In short: as §1

SK-LU-1 = tested on: SK-LU-1
In short: as §1

PC-3 [JPC-3] = tested on: PC-3 [JPC-3]
In short: as §1

NCI-H1793 = tested on: NCI-H1793
In short: as §1

NCI-H2087 = tested on: NCI-H2087
In short: as §1

NCI-H358 = tested on: NCI-H358
In short: as §1

NCI-H1651 = tested on: NCI-H1651
In short: as §1

HCC-366 = tested on: HCC-366
In short: as §1

NCI-H650 = tested on: NCI-H650
In short: as §1

NCI-H23 = tested on: NCI-H23
In short: as §1

COR-L23 = tested on: COR-L23
In short: as §1

HARA = tested on: HARA
In short: as §1

H3255 = tested on: H3255
In short: as §1

NCI-H460 = tested on: NCI-H460
In short: as §1

201T = tested on: 201T
In short: as §1

HCC-78 = tested on: HCC-78
In short: as §1

NCI-H1755 = tested on: NCI-H1755
In short: as §1

NCI-H3122 = tested on: NCI-H3122
In short: as §1

NCI-H322M = tested on: NCI-H322M
In short: as §1

Work on `Cc1csc(=NC2CCCCC2)n1/N=C/c1ccc(O)c(O)c1O` [MIM1] + CS(=O)(=O)CCNCc1ccc(-c2ccc3ncnc(Nc4ccc(OCc5cccc(F)c5)c(Cl)c4)c3c2)o1 [Lapatinib] (partner 2 µM) yielded a relative viability (LU99A; first compound 0.2 µM) of 1.08, a relative viability (LU99A; first compound 0.6325 µM) of 0.894 and a relative viability (LU99A; first compound 2 µM) of 0.779. The relative viability (LU99A; first compound 6.325 µM) was 0.915, the relative viability (LU99A; first compound 20 µM) was 0.282 and the relative viability (NCI-H1650; first compound 0.2 µM) was 0.788. For the same molecule, the relative viability (NCI-H1650; first compound 0.6325 µM) was 0.566, the relative viability (NCI-H1650; first compound 2 µM) was 0.565 and the relative viability (NCI-H1650; first compound 6.325 µM) was 0.204. For the same molecule, the relative viability (NCI-H1650; first compound 20 µM) was 0.148, the relative viability (NCI-H2085; first compound 0.2 µM) was 0.799 and the relative viability (NCI-H2085; first compound 0.6325 µM) was 0.796. The relative viability (NCI-H2085; first compound 2 µM) was 0.772, the relative viability (NCI-H2085; first compound 6.325 µM) was 0.652 and the relative viability (NCI-H2085; first compound 20 µM) was 0.537. The relative viability (NCI-H596; first compound 0.2 µM) was 1.13, the relative viability (NCI-H596; first compound 0.6325 µM) was 1.16 and the relative viability (NCI-H596; first compound 2 µM) was 1.07. For the same molecule, the relative viability (NCI-H596; first compound 6.325 µM) was 0.932, the relative viability (NCI-H596; first compound 20 µM) was 0.733 and the relative viability (SK-LU-1; first compound 0.2 µM) was 0.825. It also gave a relative viability (SK-LU-1; first compound 0.6325 µM) of 0.839, a relative viability (SK-LU-1; first compound 2 µM) of 0.791 and a relative viability (SK-LU-1; first compound 6.325 µM) of 0.72. It also gave a relative viability (SK-LU-1; first compound 20 µM) of 0.325, a relative viability (PC-3 [JPC-3]; first compound 0.2 µM) of 0.486 and a relative viability (PC-3 [JPC-3]; first compound 0.6325 µM) of 0.505. It also gave a relative viability (PC-3 [JPC-3]; first compound 2 µM) of 0.424, a relative viability (PC-3 [JPC-3]; first compound 6.325 µM) of 0.45 and a relative viability (PC-3 [JPC-3]; first compound 20 µM) of 0.46. For the same molecule, the relative viability (NCI-H1793; first compound 0.2 µM) was 0.768, the relative viability (NCI-H1793; first compound 0.6325 µM) was 0.623 and the relative viability (NCI-H1793; first compound 2 µM) was 0.645. It also gave a relative viability (NCI-H1793; first compound 6.325 µM) of 0.669, a relative viability (NCI-H1793; first compound 20 µM) of 0.459 and a relative viability (NCI-H2087; first compound 0.2 µM) of 1.04. It also gave a relative viability (NCI-H2087; first compound 0.6325 µM) of 0.85, a relative viability (NCI-H2087; first compound 2 µM) of 0.998 and a relative viability (NCI-H2087; first compound 6.325 µM) of 0.602. It also gave a relative viability (NCI-H2087; first compound 20 µM) of 0.511, a relative viability (NCI-H358; first compound 0.2 µM) of 0.506 and a relative viability (NCI-H358; first compound 0.6325 µM) of 0.475. For the same molecule, the relative viability (NCI-H358; first compound 2 µM) was 0.433, the relative viability (NCI-H358; first compound 6.325 µM) was 0.36 and the relative viability (NCI-H358; first compound 20 µM) was 0.303. The relative viability (NCI-H1651; first compound 0.2 µM) was 0.883, the relative viability (NCI-H1651; first compound 0.6325 µM) was 0.854 and the relative viability (NCI-H1651; first compound 2 µM) was 0.95. It also gave a relative viability (NCI-H1651; first compound 6.325 µM) of 0.655, a relative viability (NCI-H1651; first compound 20 µM) of 0.274 and a relative viability (HCC-366; first compound 0.2 µM) of 1.01. The relative viability (HCC-366; first compound 0.6325 µM) was 0.905, the relative viability (HCC-366; first compound 2 µM) was 0.741 and the relative viability (HCC-366; first compound 6.325 µM) was 0.548. For the same molecule, the relative viability (HCC-366; first compound 20 µM) was 0.0188, the relative viability (NCI-H650; first compound 0.2 µM) was 0.976 and the relative viability (NCI-H650; first compound 0.6325 µM) was 0.737. The relative viability (NCI-H650; first compound 2 µM) was 0.897, the relative viability (NCI-H650; first compound 6.325 µM) was 0.791 and the relative viability (NCI-H650; first compound 20 µM) was 0.235. It also gave a relative viability (NCI-H23; first compound 0.2 µM) of 1.13, a relative viability (NCI-H23; first compound 2 µM) of 0.734 and a relative viability (NCI-H23; first compound 6.325 µM) of 0.88. For the same molecule, the relative viability (NCI-H23; first compound 20 µM) was 0.177, the relative viability (COR-L23; first compound 0.2 µM) was 0.931 and the relative viability (COR-L23; first compound 0.6325 µM) was 1.07. For the same molecule, the relative viability (COR-L23; first compound 2 µM) was 0.844, the relative viability (COR-L23; first compound 6.325 µM) was 0.619 and the relative viability (COR-L23; first compound 20 µM) was 0.286. It also gave a relative viability (HARA; first compound 0.2 µM) of 0.615, a relative viability (HARA; first compound 0.6325 µM) of 0.662 and a relative viability (HARA; first compound 2 µM) of 0.821. The relative viability (HARA; first compound 6.325 µM) was 0.55, the relative viability (HARA; first compound 20 µM) was 0.128 and the relative viability (H3255; first compound 0.2 µM) was 0.274. The relative viability (H3255; first compound 0.6325 µM) was 0.208, the relative viability (H3255; first compound 2 µM) was 0.242 and the relative viability (H3255; first compound 6.325 µM) was 0.22. For the same molecule, the relative viability (H3255; first compound 20 µM) was 0.198, the relative viability (NCI-H460; first compound 0.2 µM) was 0.889 and the relative viability (NCI-H460; first compound 0.6325 µM) was 1.01. The relative viability (NCI-H460; first compound 2 µM) was 0.351, the relative viability (NCI-H460; first compound 6.325 µM) was 0.256 and the relative viability (NCI-H460; first compound 20 µM) was 0.0216. It also gave a relative viability (201T; first compound 0.2 µM) of 1.08, a relative viability (201T; first compound 0.6325 µM) of 1.05 and a relative viability (201T; first compound 2 µM) of 1.01. It also gave a relative viability (201T; first compound 6.325 µM) of 0.49, a relative viability (201T; first compound 20 µM) of 0.617 and a relative viability (HCC-78; first compound 0.2 µM) of 0.834. It also gave a relative viability (HCC-78; first compound 0.6325 µM) of 0.964, a relative viability (HCC-78; first compound 2 µM) of 0.637 and a relative viability (HCC-78; first compound 6.325 µM) of 0.492. The relative viability (HCC-78; first compound 20 µM) was 0.336, the relative viability (NCI-H1755; first compound 0.2 µM) was 1.04 and the relative viability (NCI-H1755; first compound 0.6325 µM) was 0.973. It also gave a relative viability (NCI-H1755; first compound 2 µM) of 1.03, a relative viability (NCI-H1755; first compound 6.325 µM) of 0.722 and a relative viability (NCI-H1755; first compound 20 µM) of 0.251. It also gave a relative viability (NCI-H3122; first compound 0.2 µM) of 1.02, a relative viability (NCI-H3122; first compound 0.6325 µM) of 1.07 and a relative viability (NCI-H3122; first compound 2 µM) of 1.01. The relative viability (NCI-H3122; first compound 6.325 µM) was 0.859, the relative viability (NCI-H3122; first compound 20 µM) was 0.304 and the relative viability (NCI-H322M; first compound 0.2 µM) was 0.653. The relative viability (NCI-H322M; first compound 0.6325 µM) was 0.531, the relative viability (NCI-H322M; first compound 2 µM) was 0.532 and the relative viability (NCI-H322M; first compound 6.325 µM) was 0.577. For the same molecule, the relative viability (NCI-H322M; first compound 20 µM) was 0.801.
